One assay concerns the target Activated CDK2/CyclinA (Homo sapiens, UniProt P24941). The experiment in a line: Activated CDK2/CyclinA kinase inhibitory activity assay. The format is biochemical. As to conditions: histone H1 substrate, γ33P-ATP filter assay; read-out: IC50 against CDK2 activity. The procedure:
Compounds of the invention were tested for kinase inhibitory activity using the following protocol.
(§1) Activated CDK2/CyclinA (Brown et al, Nat. Cell Biol., 1, pp 438-443, 1999; Lowe, E. D., et al Biochemistry, 41, pp 15625-15634, 2002) is diluted to 125 pM in 2.5× strength assay buffer (50 mM MOPS pH 7.2, 62.5 mM β-glycerophosphate, 12.5 mM EDTA, 37.5 mM MgCl2, […], 2.5 mM DTT, 2.5 mM sodium orthovanadate, 0.25 mg/ml bovine serum albumin), and 10 μl mixed with 10 μl of histone substrate mix (60 μl bovine histone H1 (Upstate Biotechnology, 5 mg/ml), 940 μl H2O, 35 μCi γ^33P-ATP) and added to 96 well plates along with 5 μl of various dilutions of the test compound in DMSO (up to 2.5%). The reaction is allowed to proceed for 2 to 4 hours before being stopped with an excess of ortho-phosphoric acid (5 μl at 2%).
(§2) γ^33P-ATP which remains unincorporated into the histone H1 is separated from phosphorylated histone H1 on a Millipore MAPH filter plate. The wells of the MAPH plate are wetted with 0.5% orthophosphoric acid, and then the results of the reaction are filtered with a Millipore vacuum filtration unit through the wells. Following filtration, the residue is washed twice with 200 μl of 0.5% orthophosphoric acid. Once the filters have dried, 20 μl of Microscint 20 scintillant is added, and then counted on a Packard Topcount for 30 seconds.
(§3) The % inhibition of the CDK2 activity is calculated and plotted in order to determine the concentration of test compound required to inhibit 50% of the CDK2 activity (IC50).

Another assay deals with T1, CDK1/CyclinB (Homo sapiens, UniProt P06493).
T1 construct: purchased Upstate Discovery
T1 sequence (P06493 whole entry): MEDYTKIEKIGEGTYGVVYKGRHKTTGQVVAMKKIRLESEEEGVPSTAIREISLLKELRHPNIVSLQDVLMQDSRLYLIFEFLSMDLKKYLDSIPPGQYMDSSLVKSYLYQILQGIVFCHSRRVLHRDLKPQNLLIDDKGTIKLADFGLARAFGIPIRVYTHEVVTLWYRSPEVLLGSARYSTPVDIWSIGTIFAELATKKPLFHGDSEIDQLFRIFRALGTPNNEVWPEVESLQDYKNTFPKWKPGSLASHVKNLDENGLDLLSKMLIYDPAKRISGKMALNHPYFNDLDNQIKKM
T1 sequence (P14635 whole entry partner): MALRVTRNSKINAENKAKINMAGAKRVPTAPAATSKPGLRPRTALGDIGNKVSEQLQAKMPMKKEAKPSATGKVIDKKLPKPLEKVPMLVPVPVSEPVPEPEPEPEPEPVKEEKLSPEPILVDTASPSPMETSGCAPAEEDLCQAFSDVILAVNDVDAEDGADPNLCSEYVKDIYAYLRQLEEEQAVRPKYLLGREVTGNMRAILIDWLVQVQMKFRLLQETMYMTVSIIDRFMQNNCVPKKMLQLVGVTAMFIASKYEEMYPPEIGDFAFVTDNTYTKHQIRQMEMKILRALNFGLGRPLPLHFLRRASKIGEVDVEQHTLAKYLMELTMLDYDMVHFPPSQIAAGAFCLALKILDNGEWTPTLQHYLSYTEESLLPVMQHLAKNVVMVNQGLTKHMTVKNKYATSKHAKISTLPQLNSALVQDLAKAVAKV
The experiment in a line: Activated CDK1/CyclinB kinase inhibitory activity assay. As to conditions: histone H1 substrate, γ33P-ATP filter assay; read-out: IC50 against CDK1 activity. The format is biochemical. The method, then:
as §1, §2, §3
CDK1/CyclinB assay is identical to the CDK2/CyclinA above except that CDK1/CyclinB (Upstate Discovery) is used and the enzyme is diluted to 6.25 nM.

In general, IC50 refers to the concentration that gives 50% inhibition. As to `O=C(Nc1c[nH]nc1-c1nc2cc[nH]c(=O)c2[nH]1)c1c(F)cccc1F` [Example 1, 2,6-difluoro-N-[3-(4-oxo-4,5-dihydro-3H-imidazo[4,5-c]pyridin-2-yl)-1H-pyrazol-4-yl]-benzamide], the IC50 at Activated CDK2/CyclinA and on CDK1/CyclinB was < 1000 nM in each case.

As for `O=C(Nc1c[nH]nc1-c1nc2c([nH]1)CCNC2)c1c(F)cccc1F` [Example 4, 2,6-difluoro-N-[3-(4,5,6,7-tetrahydro-1H-imidazol[4,5-c]pyridin-2-yl)-1H-pyrazol-4-yl]-benzamide], the IC50 at Activated CDK2/CyclinA and on CDK1/CyclinB was < 1000 nM in each case.

`CCN1CCc2[nH]c(-c3n[nH]cc3NC(=O)c3c(F)cccc3F)nc2C1` [Example 6, N-[3-(5-ethyl-4,5,6,7-tetrahydro-1H-imidazo[4,5-c]pyridine-2-yl)-1H-pyrazol-4-yl]-2,6-difluoro-benzamide]: the IC50 on Activated CDK2/CyclinA and at CDK1/CyclinB was < 1000 nM throughout.

For `O=C(Nc1c[nH]nc1-c1nc2c([nH]1)CCN(CCF)C2)c1c(F)cccc1F` [Example 7, 2,6-difluoro-N-{3-[5-(2-fluoro-ethyl)-4,5,6,7-tetrahydro-1H-imidazol[4,5-c]pyridine-2-yl]-1H-pyrazol-4-yl}-benzamide], the IC50 at Activated CDK2/CyclinA and at CDK1/CyclinB was < 1000 nM throughout.

(Values after patent US20080004270A1, “3,4-Disubstituted Pyrazoles as Cyclin Dependent Kinases (Cdk) or Aurora Kinase or Glycogen Synthase 3 (Gsk-3) Inhibitors” (ASTEX THERAPEUTICS LIMITED, priority 2004, published 2008).)
